Test results as given in patent publication US20220280543A1, “DDX17 AND NLRC4 TARGETING FOR INFLAMMATORY DISEASES” (University of Virginia Patent Foundation, priority 2019, published 2022).

Key:
RPE degeneration = experiment: Alu RNA induced RPE degeneration in mice, fundus images and ZO-1 staining; assay type: in vivo; conditions: subretinal, WT mice (FIG. 26)
Procedure: FIGS. 25A and 25B. NLRC4 knockdown blocks Alu RNA (SEQ ID NO: 86) induced ASC oligomerization and RPE degeneration. Human RPE cell treated with siRNA target on NLRC4 (SMARTPOOL siRNA for NLRC4: CAACUGGGCUCCUCUGUAA; SEQ ID NO: 93) and NAIP (SMARTPOOL siRNA for NAIP: GUAAAGAGCUAUAUGGAUA; SEQ ID NO: 94), 24 hours later, treated with Alu RNA (SEQ ID NO: 86 at 100 pmol) FIG. 25A. […] The band of ASC oligomers was indicated by black arrow. […] The hyperdense areas due to the RPE degeneration in fundus images and ZO-1 disorganizations in RPE sheet are indicated by white arrows.
FIG. 26. […] Wilde type of C57/B6 mice were intravitreally injected with siRNA target on Ddx17 (siRNA for Ddx17: GGCUAGAUGUGGAAGAUGU; SEQ ID NO: 95), and two days later, Nlrc4^−/−, Naip1-6^−/−, mice and Ddx17 knockdown mice were subretinally injected with Alu RNA (SEQ ID NO: 86). […] The hyperdense areas due to the RPE degeneration in fundus images and ZO-1 disorganizations in RPE sheet are indicated by white arrows.
(§1) Next, we asked whether Alu RNA (SEQ ID NO: 86) also triggered NLRC4 inflammasome activation in human RPE cells. We performed immunofluorescence staining experiments to examine whether Alu RNA (SEQ ID NO: 86) can induce NLRC4 speck formation in human RPE cells. We noticed punctate structures resembling specks of NLRC4 in human RPE cells in response to Alu RNA (SEQ ID NO: 86) treatment (FIG. 24A). […] We further investigated downstream events of NLRC4 inflammasome activation by studying NLRC4-induced ASC oligomerization, a critical step involved in caspase-1 cleavage. NLRC4 siRNA, when co-administered with Alu RNA (SEQ ID NO: 86), blocked ASC oligomerization in vitro (FIG. 25A) and RPE degeneration in vivo (FIG. 25B).
We delivered Alu RNA (SEQ ID NO: 86) or Alu RNA (SEQ ID NO: 86)+siDDX17 subretinally in WT or NLRC4 KO or NAIP1-6 KO mice and examined for RPE degeneration using fundus photos and ZO-1 staining as described previously.

caspase-1 = experiment: Alu RNA induced cleavage of caspase-1 precursor in BMDM; assay type: cell-based, mouse; conditions: Alu RNA transfection (FIG. 2)
Procedure: FIG. 2. SINE RNA induced NLRC4 phosphorylation (site S533) through protein Kinase C Delta. BMDM cell pre-treated with the LRRK2 Kinase inhibitor gsk2578215a (GSK; 5-(2-Fluoro-4-pyridinyl)-2-(phenylmethoxy)-N-3-pyridinyl-benzamide; CAS Number 1285515-21-0; Sigma-Aldrich, St. Louis, Mo., United States of America) or the PKC delta inhibitor Rottlerin (CAS Number 82-08-6; Sigma-Aldrich) at 2 μM or 5 μM, and treated with Alu RNA (SEQ ID NO: 86) transfection or transfection reagent alone (Mock). NLRC4 phosphorylation (P-NLRC4) and supernatant caspase-1 activation were detected by SDS-PAGE. […] PKC delta inhibitor, Rottlerin blocked Alu RNA-induced NLRC4 phosphorylation and caspase-1 activation. The p-NLRC4 and caspase-1 (p20) bands were indicated with black arrows.

NLRC4 and NLRP3 complex = experiment: Assembly of NLRC4 and NLRP3 complex in human RPE cells, Proximity Ligation Assay; assay type: cell-based; conditions: biotinylated Alu RNA 100 pmol, PLA (FIG. 37)
Procedure: FIG. 37. Alu RNA (SEQ ID NO: 86) induces the assembly of NLRC4 and NLRP3 complex. Human RPE cells were transfected with biotinylated Alu RNA (SEQ ID NO: 86 at 100 pmol) by LIPOFECTAMINE™ 3000 brand transfection reagent (Lipo; ThermoFisher Scientific). The assembly of NLRC4 and NLRP3 complex was evaluated by Proximity Ligation Assay (PLA). […] The signal of NLRC4-NLRP3 complexes is indicated by the white arrow.
Human RPE cells were treated with biotinylated Alu RNA (SEQ ID NO: 86 at 100 pmol). The assembly of NLRC4 and NLRP3 complex was evaluated by Proximity Ligation Assay (PLA).

NLRC4 = experiment: Alu RNA induced NLRC4 oligomers in human RPE cells, native PAGE; assay type: cell-based; conditions: Alu RNA transfection vs mock (FIG. 24B)
Source text: FIGS. 24A and 24B. Alu RNA (SEQ ID NO: 86) induced NLRC4 activation in human RPE cells. To test whether Alu RNA (SEQ ID NO: 86) induces NLRC4 activation in human RPE, we transfected human RPE with Alu RNA (SEQ ID NO: 86 at 100 pmol). FIG. 24A. Immunofluorescence staining on NLRC4 show Alu RNA (SEQ ID NO: 86) induced cytosolic NLRC4 punctate in hRPE cells. The NLRC4 aggregates induced by Alu RNA (SEQ ID NO: 86) are indicated by white arrows. FIG. 24B. Alu RNA (SEQ ID NO: 86) induced NLRC4 (p-NLRC4) phosphorylation and oligomerization. Loading control show by Actin. NLRC4 oligomers were detected by Tris-glycine native PAGE. […] The band of NLRC4 oligomers is indicated by black arrow.
as §1

Alu RNA: human SINE RNA, SEQ ID NO: 86
RPE degeneration induced by Alu RNA (RPE degeneration): induced RPE degeneration
cleavage of caspase-1 precursor (pro) to p20 (caspase-1): induced
assembly of NLRC4 and NLRP3 complex (NLRC4 and NLRP3 complex): induced the assembly
formation of NLRC4 oligomers, human RPE cells (NLRC4): induced the formation of NLRC4 oligomers
